Measurements as given in BindingDB's records for doi:10.1021/jm00039a015 (Abbott Laboratories, 1994).
pKi: −log10 of the molar value. Structures can show the parent of a compound that is named as a salt.

Target: Platelet-activating factor receptor (Oryctolagus cuniculus)
Test: Antagonist activity against platelet activating factor (PAF) receptor in rabbit platelet membranes using [3H]C18-PAF as radioligand

Row | SMILES | pKi
1 | O=C(c1c[nH]c2c(OCc3ccccc3)cccc12)[C@@H]1CSC(c2cccnc2)N1 (stereo partly drawn) [(7-Benzyloxy-1H-indol-3-yl)-((R)-2-pyridin-3-yl-thiazolidin-4-yl)-methanone; TFA] | 8.96
2 | CC(=O)N1C(c2cccnc2)SC[C@H]1C(=O)c1c[nH]c2ccccc12 (stereo partly drawn) [1-[(R)-4-(1H-Indole-3-carbonyl)-2-pyridin-3-yl-thiazolidin-3-yl]-ethanone] | 4.75
3 | O=C(c1cn(C(=O)N2CCOCC2)c2cc(OCc3ccccc3)ccc12)[C@@H]1CSC(c2cccnc2)N1 (stereo partly drawn) [[6-Benzyloxy-3-((R)-2-pyridin-3-yl-thiazolidine-4-carbonyl)-indol-1-yl]-morpholin-4-yl-methanone] | 8.00
4 | CCS(=O)(=O)n1cc(C(=O)[C@@H]2CSC(c3cccnc3)N2)c2ccc(OCc3ccccc3)cc21 (stereo partly drawn) [(6-Benzyloxy-1-ethanesulfonyl-1H-indol-3-yl)-((R)-2-pyridin-3-yl-thiazolidin-4-yl)-methanone] | 8.09
5 | Cc1ccc2c(C(=O)[C@@H]3CSC(c4cccnc4)N3)c[nH]c2c1 (stereo partly drawn) [(6-Methyl-1H-indol-3-yl)-((R)-2-pyridin-3-yl-thiazolidin-4-yl)-methanone] | 8.47
6 | O=C([C@@H]1CSC(c2cccnc2)N1)n1ccc2cccc(OCc3ccccc3)c21 (stereo partly drawn) [(7-Benzyloxy-indol-1-yl)-((R)-2-pyridin-3-yl-thiazolidin-4-yl)-methanone; compound with oxalic acid] | 6.41
7 | O=C(c1c[nH]c2ccccc12)[C@@H]1CSC(c2cccnc2)N1 (stereo partly drawn) [(1H-Indol-3-yl)-((R)-2-pyridin-3-yl-thiazolidin-4-yl)-methanone; compound with oxalic acid] | 8.47
8 | COc1cc2[nH]cc(C(=O)[C@@H]3CSC(c4cccnc4)N3)c2cc1OC (stereo partly drawn) [(5,6-Dimethoxy-1H-indol-3-yl)-((R)-2-pyridin-3-yl-thiazolidin-4-yl)-methanone] | 7.06
9 | O=C([C@@H]1CSC(c2cccnc2)N1)n1ccc2ccc(OCc3ccccc3)cc21 (stereo partly drawn) [(6-Benzyloxy-indol-1-yl)-((R)-2-pyridin-3-yl-thiazolidin-4-yl)-methanone] | 7.28
10 | CN(C)C(=O)n1cc(C(=O)[C@@H]2CSC(c3cccnc3)N2)c2ccc(Br)cc21 (stereo partly drawn) [6-Bromo-3-((R)-2-pyridin-3-yl-thiazolidine-4-carbonyl)-indole-1-carboxylic acid dimethylamide] | 9.22
11 | O=C(c1c[nH]c2cc(OCc3ccc(F)cc3)ccc12)[C@@H]1CSC(c2cccnc2)N1 (stereo partly drawn) [[6-(4-Fluoro-benzyloxy)-1H-indol-3-yl]-((R)-2-pyridin-3-yl-thiazolidin-4-yl)-methanone] | 8.80
12 | CC(C)(C)NC(=O)n1cc(C(=O)[C@@H]2CSC(c3cccnc3)N2)c2ccccc21 (stereo partly drawn) [3-((R)-2-Pyridin-3-yl-thiazolidine-4-carbonyl)-indole-1-carboxylic acid tert-butylamide] | 8.06
13 | O=C(c1cn(Cc2ccccc2)c2ccccc12)[C@@H]1CSC(c2cccnc2)N1 (stereo partly drawn) [(1-Benzyl-1H-indol-3-yl)-((R)-2-pyridin-3-yl-thiazolidin-4-yl)-methanone] | 7.31
14 | O=C(c1cn(CC(F)(F)F)c2ccccc12)[C@@H]1CSC(c2cccnc2)N1 (stereo partly drawn) [((R)-2-Pyridin-3-yl-thiazolidin-4-yl)-[1-(2,2,2-trifluoro-ethyl)-1H-indol-3-yl]-methanone] | 7.68
15 | COC(=O)CCn1cc(C(=O)[C@@H]2CSC(c3cccnc3)N2)c2ccccc21 (stereo partly drawn) [3-[3-((R)-2-Pyridin-3-yl-thiazolidine-4-carbonyl)-indol-1-yl]-propionic acid methyl ester] | 8.34
16 | COc1cc(C(=O)c2cccc(NC(=O)[C@@H]3CSC(c4cccnc4)N3)c2)cc(OC)c1OC (stereo partly drawn) [(R)-2-Pyridin-3-yl-thiazolidine-4-carboxylic acid [3-(3,4,5-trimethoxy-benzoyl)-phenyl]-amide] | 8.80
17 | CN(C)C(=O)n1cc(C(=O)[C@@H]2CSC(c3cccnc3)N2)c2ccc(Cl)cc21 (stereo partly drawn) [6-Chloro-3-((R)-2-pyridin-3-yl-thiazolidine-4-carbonyl)-indole-1-carboxylic acid dimethylamide] | 9.00
18 | CCn1cc(C(=O)[C@@H]2CSC(c3cccnc3)N2)c2ccccc21 (stereo partly drawn) [(1-Ethyl-1H-indol-3-yl)-((R)-2-pyridin-3-yl-thiazolidin-4-yl)-methanone] | 8.27
19 | CCOC(=O)Cn1cc(C(=O)[C@@H]2CSC(c3cccnc3)N2)c2ccccc21 (stereo partly drawn) [[3-((R)-2-Pyridin-3-yl-thiazolidine-4-carbonyl)-indol-1-yl]-acetic acid ethyl ester] | 8.92
20 | O=C(C1CSC(c2cccnc2)N1)n1ccc2c(Cl)cccc21 (stereo not drawn) [(4-Chloro-indol-1-yl)-(2-pyridin-3-yl-thiazolidin-4-yl)-methanone] | 7.48
21 | CC(C)(C)OC(=O)N1C(c2cccnc2)SC[C@H]1C(=O)c1c[nH]c2ccccc12 (stereo partly drawn) [(R)-4-(1H-Indole-3-carbonyl)-2-pyridin-3-yl-thiazolidine-3-carboxylic acid tert-butyl ester] | 5.01
22 | Cc1c(C(=O)[C@@H]2CSC(c3cccnc3)N2)c2ccccc2n1C(=O)OC(C)(C)C (stereo partly drawn) [2-Methyl-3-((R)-2-pyridin-3-yl-thiazolidine-4-carbonyl)-indole-1-carboxylic acid tert-butyl ester; compound with oxalic acid] | 8.02

Row | SMILES | pKi
23 | O=C(c1c[nH]c2cc(OCc3cccnc3)ccc12)[C@@H]1CSC(c2cccnc2)N1 (stereo partly drawn) [[6-(Pyridin-3-ylmethoxy)-1H-indol-3-yl]-((R)-2-pyridin-3-yl-thiazolidin-4-yl)-methanone] | 7.43
24 | Cc1ccc2c(c1)c(C(=O)[C@@H]1CSC(c3cccnc3)N1)c(C)n2C(=O)N(C)C (stereo partly drawn) [2,5-Dimethyl-3-(2-pyridin-3-yl-thiazolidine-4-carbonyl)-indole-1-carboxylic acid dimethylamide] | 7.89
25 | O=CN1C(c2cccnc2)SC[C@H]1C(=O)c1c[nH]c2ccccc12 (stereo partly drawn) [(R)-4-(1H-Indole-3-carbonyl)-2-pyridin-3-yl-thiazolidine-3-carbaldehyde] | 6.66
26 | O=C(c1cn(C(=O)c2ccc(Cl)cc2)c2ccccc12)[C@@H]1CSC(c2cccnc2)N1 (stereo partly drawn) [(4-Chloro-phenyl)-[3-((R)-2-pyridin-3-yl-thiazolidine-4-carbonyl)-indol-1-yl]-methanone] | 8.47
27 | Cc1ccc2[nH]c(C)c(C(=O)[C@@H]3CSC(c4cccnc4)N3)c2c1 (stereo partly drawn) [(2,5-Dimethyl-1H-indol-3-yl)-((R)-2-pyridin-3-yl-thiazolidin-4-yl)-methanone] | 7.48
28 | CN(C)C(=O)n1cc(C(=O)[C@@H]2CSC(c3cccnc3)N2)c2ccc(OCc3ccccc3)cc21 (stereo partly drawn) [6-Benzyloxy-3-((R)-2-pyridin-3-yl-thiazolidine-4-carbonyl)-indole-1-carboxylic acid dimethylamide; compound with oxalic acid] | 8.85
29 | CN(C)C(=O)n1cc(C(=O)[C@@H]2CSC(c3cccnc3)N2)c2ccc(-c3ccc(F)cc3)cc21 (stereo partly drawn) [6-(4-Fluoro-phenyl)-3-((R)-2-pyridin-3-yl-thiazolidine-4-carbonyl)-indole-1-carboxylic acid dimethylamide] | 8.04
30 | COc1cc2c(C(=O)[C@@H]3CSC(c4cccnc4)N3)cn(C(=O)N(C)C)c2cc1OC (stereo partly drawn) [5,6-Dimethoxy-3-((R)-2-pyridin-3-yl-thiazolidine-4-carbonyl)-indole-1-carboxylic acid dimethylamide] | 8.00
31 | Cc1[nH]c2cc(OCc3ccccc3)ccc2c1C(=O)[C@@H]1CSC(c2cccnc2)N1 (stereo partly drawn) [(6-Benzyloxy-2-methyl-1H-indol-3-yl)-((R)-2-pyridin-3-yl-thiazolidin-4-yl)-methanone] | 7.80
32 | O=C(c1cn(C(=O)N2CCOCC2)c2ccccc12)[C@@H]1CSC(c2cccnc2)N1 (stereo partly drawn) [Morpholin-4-yl-[3-((R)-2-pyridin-3-yl-thiazolidine-4-carbonyl)-indol-1-yl]-methanone] | 8.82
33 | CC(C)(C)C(=O)n1cc(C(=O)[C@@H]2CSC(c3cccnc3)N2)c2ccccc21 (stereo partly drawn) [2,2-Dimethyl-1-[3-((R)-2-pyridin-3-yl-thiazolidine-4-carbonyl)-indol-1-yl]-propan-1-one] | 8.06
34 | Cc1[nH]c2ccccc2c1C(=O)[C@@H]1CSC(c2cccnc2)N1 (stereo partly drawn) [(2-Methyl-1H-indol-3-yl)-((R)-2-pyridin-3-yl-thiazolidin-4-yl)-methanone] | 7.64
35 | COc1ccc2c(C(=O)[C@@H]3CSC(c4cccnc4)N3)c[nH]c2c1 (stereo partly drawn) [(6-Methoxy-1H-indol-3-yl)-((R)-2-pyridin-3-yl-thiazolidin-4-yl)-methanone] | 8.02
36 | O=C(c1c[nH]c2cc(F)ccc12)[C@@H]1CSC(c2cccnc2)N1 (stereo partly drawn) [(6-Fluoro-1H-indol-3-yl)-((R)-2-pyridin-3-yl-thiazolidin-4-yl)-methanone] | 8.25
37 | Cc1ccc2c(C(=O)[C@@H]3CSC(c4cccnc4)N3)cn(C(=O)OC(C)(C)C)c2c1 (stereo partly drawn) [6-Methyl-3-((R)-2-pyridin-3-yl-thiazolidine-4-carbonyl)-indole-1-carboxylic acid tert-butyl ester] | 8.59
38 | CN(C)C(=O)n1cc(C(=O)[C@@H]2CSC(c3cccnc3)N2)c2ccc(Oc3ccc(F)cc3)cc21 (stereo partly drawn) [6-(4-Fluoro-phenoxy)-3-((R)-2-pyridin-3-yl-thiazolidine-4-carbonyl)-indole-1-carboxylic acid dimethylamide] | 8.66
39 | O=C(c1c[nH]c2ccccc12)[C@@H]1CS[C@@H](c2cccnc2)N1C(=O)C(F)(F)F | 5.15
40 | O=C(c1c[nH]c2cc(OCc3ccccc3)ccc12)[C@@H]1CSC(c2cccnc2)N1 (stereo partly drawn) [(6-Benzyloxy-1H-indol-3-yl)-((R)-2-pyridin-3-yl-thiazolidin-4-yl)-methanone] | 8.80
41 | O=C(c1c[nH]c2cc(-c3ccccc3)ccc12)[C@@H]1CSC(c2cccnc2)N1 (stereo partly drawn) [(6-Phenyl-1H-indol-3-yl)-((R)-2-pyridin-3-yl-thiazolidin-4-yl)-methanone] | 7.85
42 | CC(C)(C)OC(=O)n1cc(C(=O)[C@@H]2CSC(c3cccnc3)N2)c2ccccc21 (stereo partly drawn) [3-((R)-2-Pyridin-3-yl-thiazolidine-4-carbonyl)-indole-1-carboxylic acid tert-butyl ester] | 9.00
43 | CN(C)C(=O)n1cc(C(=O)[C@@H]2CSC(c3cccnc3)N2)c2ccc(-c3cccnc3)cc21 (stereo partly drawn) [6-Pyridin-3-yl-3-((R)-2-pyridin-3-yl-thiazolidine-4-carbonyl)-indole-1-carboxylic acid dimethylamide] | 7.40
